Test results: patent publication US7192980B2, “Certain substituted polyketides, pharmaceutical compositions containing them and their use in treating tumors” (Novartis AG, priority 2001, dated 2007)

Assays:
Assay type in all cases: cell-based
[1] = test system: 1A9PTX22 ovarian carcinoma; assay: Anchorage Dependent Growth Monolayer Assay (ADGMA), 1A9PTX22; settings: Homo sapiens, 1A9/ptx-22, 72 h; 1A9PTX22 ovarian carcinoma cells (paclitaxel-selected subline), 3-day exposure, MTT, A540; * = average of two independent experiments
Description: (§1) As indicated above, all of the compounds of formula I are anti-tumor agents and are, therefore, useful in inhibiting the growth of various lymphomas, sarcomas, carcinomas, myelomas, and leukemia cell lines. […] This assay was adapted from the 60 cell line assay used by the National Cancer Institute (NCI) with the following modifications:
(§2) 1) four cell lines representative for the important tumor types, viz., MIP 101 colon carcinoma, HCT 116 colon carcinoma, 1A9 ovarian carcinoma and 1A9PTX22 ovarian carcinoma were utilized; and 2) a tetrazolium derivative, viz., MTT, was utilized to determine cell density.
(§3) The ADGMA compares the number of viable cells following a 3-day exposure to a test compound relative to the number of cells present at the time the test compound was added. […] The absorbance at 540 nm (A540) of the formazan derivative is proportional to the number of viable cells. The IC50 for a test compound is the concentration of compound required to reduce the final cell number to 50% of the final control cell number. If cell proliferation is inhibited, the assay further defines compounds as cytostatic (cell number after 3-day compound incubation>cell number at time of compound addition) or cytotoxic (cell number after 3-day compound incubation<cell number at time of compound addition).
(§4) The HCT 116 colon carcinoma cell line was obtained from the American Type Culture Collection (ATCC, Rockville, Md.). The MIP 101 colon carcinoma was obtained from Dr. Robert Kramer (Bristol Meyers Squibb) and was previously described (Niles R M, Wilhelm S A, Steele G D JR, Burke B, Christensen T, Dexter D, O'Brien M J, Thomas P, Zamcheck N. Isolation and characterization of an undifferentiated human colon carcinoma cell line (MIP 101). Cancer Invest. 1987;5(6):545–52). The 1A9 and the 1A9PTX22 ovarian tumor cell lines were obtained from Dr. Tito Fojo, Medicine Branch, Division of Clinical Sciences, National Cancer Institute, National Institutes of Health, Bethesda, Md. 20892. The 1A9 is a clone of the ovarian carcinoma cell line, A2780 (Giannakakou P, Sackett, D L, Kang Y-K, Zhan Z, Buters J T M, Fojo T, Poruchynsky M S. Paclitaxel-resistant human ovarian cancer cells have mutant β-tubulins that impaired paclitaxel-driven polymerization. J. Biol. Chem. 1997, 272(4):17118–17125). The 1A9PTX22 subline was isolated as an individual clone from the 1A9 cell line in a single step selection by exposure to 5 ng/mL paclitaxel in the presence of 5 μg/mL of verapamil. All cell lines were used between passages 4–20 following thawing. MIP 101 colon carcinoma, HCT 116 colon carcinoma, 1A9 ovarian carcinoma and 1A9PTX22 ovarian carcinoma cell lines are maintained and plated in RPMI 1640 medium containing 10% fetal bovine serum.
(§5) Cells are trypsinized and counted using a hemacytometer to determine cell concentrations. Cells were then plated in their respective maintenance media (200 μL/well) in 96-well plates at the following concentrations: MIP 101, 2000 cells/well, HCT 116, 2000 cells/well, 1A9, 10000 cells/well, and 1A9PTX22, 10000 cells/well. […] Initial cell densities, assayed one day after plating, are roughly 0.10–0.20 A540 absorbance units greater than the media blank. Ninety-six-well plates were seeded on day 0 and the test compounds are added on day 1. A “time 0” plate was created that received media only in row A and one cell line/row in rows B–E. The “time 0” plate was processed 24 hours after plating (at the time when drugs were added to experimental plates), as follows: To each well 5 micoliters of the MTT stock solution (0.5 mg/mL in PBS) was added to each well and then incubated for three hours at 37° C., 5% CO2, in a humidified environment. Media was then carefully and completely removed. Plates were allowed to dry in the dark. Dimethylsulfoxide (DMSO) was added to each well (100 μL/well) and plates were placed on an orbital shaker for 2 hours. […]

MIP 101 colon carcinoma = assay: Anchorage Dependent Growth Monolayer Assay (ADGMA), MIP 101; settings: Homo sapiens, Colon carcinoma cell, 72 h; MIP 101 colon carcinoma cells, 3-day exposure, MTT, A540; * = average of two independent experiments
Description: as §1, §2, §3, §4, §5

HCT 116 colon carcinoma = assay: Anchorage Dependent Growth Monolayer Assay (ADGMA), HCT 116; settings: Homo sapiens, 72 h; HCT 116 colon carcinoma cells, 3-day exposure, MTT, A540; * = average of two independent experiments; read-out: IC50 HCT116
Description: as §1, §2, §3, §4, §5

1A9 ovarian carcinoma = assay: Anchorage Dependent Growth Monolayer Assay (ADGMA), 1A9; settings: Homo sapiens, Ovarian carcinoma cell, 72 h; 1A9 ovarian carcinoma cells, 3-day exposure, MTT, A540; * = average of two independent experiments
Description: as §1, §2, §3, §4, §5

| Compound | IC50 [1] [nM] | IC50 (MIP 101 colon carcinoma) [nM] | IC50 (HCT 116 colon carcinoma) [nM] | IC50 (1A9 ovarian carcinoma) [nM] |
| --- | --- | --- | --- | --- |
| C=C/C=C\[C@H](C)[C@H](OC(N)=O)[C@@H](C)[C@H](O)[C@@H](C)C/C(C)=C\C(C)C(O)C(C)/C=C\[C@@H](O)C[C@H]1CCCC(=O)O1 (stereo partly drawn) [Ex. 1, 6-[(2S,3Z,8Z,11S,12R,13S,14S,15S,16Z)-14-[(aminocarbonyl)oxy]-2,6,12-trihydroxy-5,7,9,11,13,15-hexamethyl-3,8,16,18-nonadecatetraenyl]tetrahydro-(6R)-2H-pyran-2-one] | 7 ± 2 | 60 ± 10 | 7 ± 5 | 6 ± 2 |
| C=C/C=C\[C@H](C)C(OC(N)=O)C(C)C(O)C(C)C/C(C)=C\[C@H](C)[C@@H](O)[C@@H](C)COC(=O)NC1CCCCC1 (stereo partly drawn) [Ex. 2, (5Z,8S,9R,10S,11S,12S,13Z)-11-[(aminocarbonyl)oxy]-3,9-dihydroxy-2,4,6,8, 10,12-hexamethyl-5,13,15-hexadecatrienyl ester cyclohexylcarbamic acid] | 400 | 3200 | 400 | 500 |
| C=C/C=C\[C@H](C)C(OC(N)=O)C(C)C(O)C(C)C/C(C)=C\[C@H](C)[C@@H](O)[C@@H](C)/C=C\COc1ccccc1 (stereo partly drawn) [Ex. 3, (2Z,7Z,10S,11R,12S,13S,14S,15Z)-4,6,8,10,12,14-hexamethyl-1-phenoxy-2,7,15,17-octadecatetraene-5,11,13-triol-13-carbamate] | 100 ± 40 | 400 ± 100 | 200 ± 100 | 300 ± 90 |
| C=C/C=C\[C@H](C)C(OC(N)=O)C(C)C(O)C(C)C/C(C)=C\[C@H](C)[C@@H](O)[C@@H](C)/C=C\C(=O)N(C)c1ccccc1 (stereo partly drawn) [Ex. 4, (2Z,7Z,10S,11R,12S,13S,14S,15Z)-13-[(aminocarbonyl)oxy]-5,11-dihydroxy-N,4,6,8,10,12,14-heptamethyl-N-phenyl 2,7,15,17-octadecatetraenamide] | 400 | 3200 | 800 | 500 |
| C=C/C=C\[C@H](C)C(OC(N)=O)C(C)C(O)C(C)C/C(C)=C\[C@H](C)[C@@H](O)[C@@H](C)CN(C)C(=O)CC1CCCCC1 (some centres unmarked) [Ex. 5] | 80 | 600 | 300 | 400 |
| C=C/C=C\[C@H](C)C(OC(N)=O)C(C)C(O)C(C)C/C(C)=C\[C@H](C)[C@@H](O)[C@@H](C)/C=C\C(O)CC1CCCC1 (stereo partly drawn) [Ex. 6, (2S,3Z,5S,6S,7S,8Z,11S,12R,13R,14S,15S,16Z)-1-cyclopentyl-5,7,9,11,13,15-hexamethyl-3,8,16,18-nonadecatetraene-2,6,12,14-tetrol-14-carbamate] | 1 | 6 | 1 | 0.3 |
| C=C/C=C\[C@H](C)C(OC(N)=O)C(C)C(O)C(C)C/C(C)=C\[C@H](C)[C@@H](O)[C@@H](C)/C=C\C(O)CC(C)C (stereo partly drawn) [Ex. 7, (2S,3Z,5S,6S,7S,8Z,11S,12R,13R,14S,15S,16Z)-1-isopropyl-5,7,9,11,13,15-hexamethyl-3,8,16,18-nonadecatetraene-2,6,12,14-tetrol-14-carbamate] | 60 | 100 | 30 | 30 |
| CC(=O)O[C@H]1C(=O)[C@@]2(C)[C@H]([C@H](OC(=O)c3ccccc3)[C@]3(O)C[C@H](OC(=O)[C@H](O)[C@@H](NC(=O)c4ccccc4)c4ccccc4)C(C)=C1C3(C)C)[C@]1(OC(C)=O)CO[C@@H]1C[C@@H]2O [Paclitaxel, reference compound] | 1 ± 1 | 200 ± 60 | 0.3 ± 0.2 | 47 ± 7 |
